Source: ChEMBL document CHEMBL1671696, “Deamplification of pfmdr1-containing amplicon on chromosome 5 in Plasmodium falciparum is associated with reduced resistance to artelinic acid in vitro” (Antimicrob Agents Chemother, 2010)
≈ marks a conversion by molar mass, not a printed value.

Legend:
[1] = system: Plasmodium falciparum; assay: Ratio of IC50 for Plasmodium falciparum subclone 3A1 containing 1 copy number of pfmdr1-containing amplicon on chromosome 5 to IC50 for wild type Plasmodium falciparum W2; format: functional
[2] = system: Plasmodium falciparum; assay: Ratio of IC90 for Plasmodium falciparum subclone 3C1 containing 3 copy number of pfmdr1-containing amplicon on chromosome 5 to IC90 for wild type Plasmodium falciparum W2; format: functional
[3] = system: Plasmodium falciparum; assay: Ratio of IC50 for Plasmodium falciparum subclone 3A8 containing 3 copy number of pfmdr1-containing amplicon on chromosome 5 to IC50 for wild type Plasmodium falciparum W2; format: functional
[4] = system: Plasmodium falciparum; assay: Antimicrobial activity against Plasmodium falciparum subclone 3C20 containing 2 copy number of pfmdr1-containing amplicon on chromosome 5 assessed as growth inhibition by [3H]hypoxanthine incorporation assay; format: functional, organism-based
[5] = system: Plasmodium falciparum; assay: Ratio of IC50 for Plasmodium falciparum subclone 3A12 containing 2 copy number of pfmdr1-containing amplicon on chromosome 5 to IC50 for wild type Plasmodium falciparum W2; format: functional
[6] = system: Plasmodium falciparum; assay: Antimicrobial activity against Plasmodium falciparum subclone 3A12 containing 2 copy number of pfmdr1-containing amplicon on chromosome 5 assessed as growth inhibition by [3H]hypoxanthine incorporation assay; format: functional, organism-based
[7] = system: Plasmodium falciparum; assay: Ratio of IC90 for Plasmodium falciparum subclone 3A3 containing 1 copy number of pfmdr1-containing amplicon on chromosome 5 to IC90 for wild type Plasmodium falciparum W2; format: functional
[8] = system: Plasmodium falciparum; assay: Ratio of IC90 for Plasmodium falciparum subclone 3A1 containing 1 copy number of pfmdr1-containing amplicon on chromosome 5 to IC90 for wild type Plasmodium falciparum W2; format: functional
[9] = system: Plasmodium falciparum; assay: Ratio of IC90 for Plasmodium falciparum subclone 3A8 containing 3 copy number of pfmdr1-containing amplicon on chromosome 5 to IC90 for wild type Plasmodium falciparum W2; format: functional
[10] = system: Plasmodium falciparum; assay: Ratio of IC50 for Plasmodium falciparum subclone 3C18 containing 3 copy number of pfmdr1-containing amplicon on chromosome 5 to IC50 for wild type Plasmodium falciparum W2; format: functional
[11] = system: Plasmodium falciparum; assay: Ratio of IC50 for Plasmodium falciparum subclone 3A17 containing 2 copy number of pfmdr1-containing amplicon on chromosome 5 to IC50 for wild type Plasmodium falciparum W2; format: functional
[12] = system: Plasmodium falciparum; assay: Antimicrobial activity against Plasmodium falciparum subclone 3A1 containing 1 copy number of pfmdr1-containing amplicon on chromosome 5 assessed as growth inhibition by [3H]hypoxanthine incorporation assay; format: functional, organism-based
[13] = system: Plasmodium falciparum; assay: Antimicrobial activity against drug pre-treated Plasmodium falciparum clone W2AL80 containing 3 copy number of pfmdr1-containing amplicon on chromosome 5 assessed as growth inhibition by [3H]hypoxanthine incorporation assay; format: functional, organism-based
[14] = system: Plasmodium falciparum; assay: Ratio of IC90 for Plasmodium falciparum subclone 3A26 containing 3 copy number of pfmdr1-containing amplicon on chromosome 5 to IC90 for wild type Plasmodium falciparum W2; format: functional
[15] = system: Plasmodium falciparum; assay: Ratio of IC50 for Plasmodium falciparum subclone 3C20 containing 2 copy number of pfmdr1-containing amplicon on chromosome 5 to IC50 for wild type Plasmodium falciparum W2; format: functional
[16] = system: Plasmodium falciparum; assay: Antimicrobial activity against Plasmodium falciparum subclone 3A3 containing 1 copy number of pfmdr1-containing amplicon on chromosome 5 assessed as growth inhibition by [3H]hypoxanthine incorporation assay; format: functional, organism-based
[17] = system: Plasmodium falciparum; assay: Ratio of IC90 for Plasmodium falciparum subclone 3C10 containing 2 copy number of pfmdr1-containing amplicon on chromosome 5 to IC90 for wild type Plasmodium falciparum W2; format: functional
[18] = system: Plasmodium falciparum; assay: Ratio of IC90 for Plasmodium falciparum subclone 3A12 containing 2 copy number of pfmdr1-containing amplicon on chromosome 5 to IC90 for wild type Plasmodium falciparum W2; format: functional
[19] = system: Plasmodium falciparum; assay: Ratio of IC50 for Plasmodium falciparum subclone 3C10 containing 2 copy number of pfmdr1-containing amplicon on chromosome 5 to IC50 for wild type Plasmodium falciparum W2; format: functional
[20] = system: Plasmodium falciparum; assay: Antimicrobial activity against Plasmodium falciparum subclone 3A17 containing 2 copy number of pfmdr1-containing amplicon on chromosome 5 assessed as growth inhibition by [3H]hypoxanthine incorporation assay; format: functional, organism-based
[21] = system: Plasmodium falciparum; assay: Ratio of IC50 for Plasmodium falciparum subclone 3C1 containing 3 copy number of pfmdr1-containing amplicon on chromosome 5 to IC50 for wild type Plasmodium falciparum W2; format: functional
[22] = system: Plasmodium falciparum; assay: Ratio of IC90 for Plasmodium falciparum subclone 3C18 containing 3 copy number of pfmdr1-containing amplicon on chromosome 5 to IC90 for wild type Plasmodium falciparum W2; format: functional
[23] = system: Plasmodium falciparum; assay: Antimicrobial activity against Plasmodium falciparum subclone 3A8 containing 3 copy number of pfmdr1-containing amplicon on chromosome 5 assessed as growth inhibition by [3H]hypoxanthine incorporation assay; format: functional, organism-based
[24] = system: Plasmodium falciparum; assay: Ratio of IC50 for Plasmodium falciparum subclone 3A7 containing 4 copy number of pfmdr1-containing amplicon on chromosome 5 to IC50 for wild type Plasmodium falciparum W2; format: functional
[25] = system: Plasmodium falciparum; assay: Antimicrobial activity against Plasmodium falciparum subclone 3C1 containing 3 copy number of pfmdr1-containing amplicon on chromosome 5 assessed as growth inhibition by [3H]hypoxanthine incorporation assay; format: functional, organism-based
[26] = system: Plasmodium falciparum; assay: Ratio of IC90 for Plasmodium falciparum subclone 3C20 containing 2 copy number of pfmdr1-containing amplicon on chromosome 5 to IC90 for wild type Plasmodium falciparum W2; format: functional
[27] = system: Plasmodium falciparum; assay: Ratio of IC90 for Plasmodium falciparum subclone 3A17 containing 2 copy number of pfmdr1-containing amplicon on chromosome 5 to IC90 for wild type Plasmodium falciparum W2; format: functional
[28] = system: Plasmodium falciparum; assay: Antimicrobial activity against compound-sensitive Plasmodium falciparum clone W2 assessed as growth inhibition by [3H]hypoxanthine incorporation assay; format: functional, organism-based
[29] = system: Plasmodium falciparum; assay: Antimicrobial activity against Plasmodium falciparum subclone 3A26 containing 3 copy number of pfmdr1-containing amplicon on chromosome 5 assessed as growth inhibition by [3H]hypoxanthine incorporation assay; format: functional, organism-based
[30] = system: Plasmodium falciparum; assay: Antimicrobial activity against Plasmodium falciparum subclone 3C18 containing 3 copy number of pfmdr1-containing amplicon on chromosome 5 assessed as growth inhibition by [3H]hypoxanthine incorporation assay; format: functional, organism-based
[31] = system: Plasmodium falciparum; assay: Ratio of IC90 for Plasmodium falciparum clone W2AL80 containing 3 copy number of pfmdr1-containing amplicon on chromosome 5 to IC90 for wild type Plasmodium falciparum W2; format: functional
[32] = system: Plasmodium falciparum; assay: Ratio of IC90 for Plasmodium falciparum subclone 3A7 containing 4 copy number of pfmdr1-containing amplicon on chromosome 5 to IC90 for wild type Plasmodium falciparum W2; format: functional
[33] = system: Plasmodium falciparum; assay: Ratio of IC50 for Plasmodium falciparum subclone 3A26 containing 3 copy number of pfmdr1-containing amplicon on chromosome 5 to IC50 for wild type Plasmodium falciparum W2; format: functional
[34] = system: Plasmodium falciparum; assay: Antimicrobial activity against Plasmodium falciparum subclone 3A7 containing 4 copy number of pfmdr1-containing amplicon on chromosome 5 assessed as growth inhibition by [3H]hypoxanthine incorporation assay; format: functional, organism-based
[35] = system: Plasmodium falciparum; assay: Antimicrobial activity against Plasmodium falciparum subclone 3C10 containing 2 copy number of pfmdr1-containing amplicon on chromosome 5 assessed as growth inhibition by [3H]hypoxanthine incorporation assay; format: functional, organism-based
[36] = system: Plasmodium falciparum; assay: Ratio of IC50 for Plasmodium falciparum subclone 3A3 containing 1 copy number of pfmdr1-containing amplicon on chromosome 5 to IC50 for wild type Plasmodium falciparum W2; format: functional
[37] = system: Plasmodium falciparum; assay: Ratio of IC50 for Plasmodium falciparum clone W2AL80 containing 3 copy number of pfmdr1-containing amplicon on chromosome 5 to IC50 for wild type Plasmodium falciparum W2; format: functional

OC(c1cc(C(F)(F)F)nc2c(C(F)(F)F)cccc12)C1CCCCN1 (stereo unspecified) [MEFLOQUINE] was tested, and the “Ratio IC50” value [1] was 1, the Ratio [2] was 5.9 and the “Ratio IC50” value [3] was 2.6. The IC90 [4] was 0.0833 µg/mL (≈ 0.22 µM), the “Ratio IC50” value [5] was 1.7 and the IC90 [6] was 0.0519 µg/mL (≈ 0.137 µM). The Ratio [7] was 2.8, the Ratio [8] was 1.8 and the Ratio [9] was 5.2. The “Ratio IC50” value [10] was 2.9, the “Ratio IC50” value [11] was 2.6 and the IC50 [12] was 0.00738 µg/mL (≈ 0.0195 µM). It also gave an IC90 [12] of 0.0261 µg/mL (≈ 0.069 µM), an IC90 [13] of 0.104 µg/mL (≈ 0.274 µM) and a Ratio [14] of 5.2. The “Ratio IC50” value [15] was 2.2, the IC90 [16] was 0.0406 µg/mL (≈ 0.107 µM) and the Ratio [17] was 5.9. For the same compound, the Ratio [18] was 3.6, the “Ratio IC50” value [19] was 3 and the IC50 [20] was 0.019 µg/mL (≈ 0.0501 µM). The IC90 [20] was 0.0954 µg/mL (≈ 0.252 µM), the “Ratio IC50” value [21] was 3.1 and the Ratio [22] was 7. The IC90 [23] was 0.0756 µg/mL (≈ 0.2 µM), the “Ratio IC50” value [24] was 3.8 and the IC90 [25] was 0.0849 µg/mL (≈ 0.224 µM). The Ratio [26] was 5.7, the Ratio [27] was 6.6 and the IC50 [28] was 0.00772 µg/mL (≈ 0.0204 µM). For the same compound, the IC90 [28] was 0.0145 µg/mL (≈ 0.0383 µM), the IC50 [29] was 0.0191 µg/mL (≈ 0.0504 µM) and the IC90 [29] was 0.075 µg/mL (≈ 0.198 µM). For the same compound, the IC90 [30] was 0.102 µg/mL (≈ 0.269 µM), the Ratio [31] was 7.2 and the Ratio [32] was 5.4. For the same compound, the “Ratio IC50” value [33] was 2.5, the IC90 [34] was 0.0778 µg/mL (≈ 0.206 µM) and the IC90 [35] was 0.0821 µg/mL (≈ 0.217 µM). The “Ratio IC50” value [36] was 1.7 and the “Ratio IC50” value [37] was 2.3.
For C[C@@H]1[C@H](OCc2ccc(C(=O)O)cc2)O[C@@H]2O[C@@]3(C)CC[C@@H]4[C@@H](C)CC[C@@H]1[C@]24OO3 [ARTELINIC ACID], the “Ratio IC50” value [1] was 7.6, the Ratio [2] was 18.5 and the “Ratio IC50” value [3] was 16.3. The IC50 [4] was 0.0424 µg/mL (≈ 0.101 µM), the IC90 [4] was 0.08 µg/mL (≈ 0.191 µM) and the “Ratio IC50” value [5] was 11. It also gave an IC50 [6] of 0.0423 µg/mL (≈ 0.101 µM), an IC90 [6] of 0.114 µg/mL (≈ 0.271 µM) and a Ratio [7] of 9.3. For the same compound, the Ratio [8] was 9.8, the Ratio [9] was 22 and the “Ratio IC50” value [10] was 21.1. For the same compound, the “Ratio IC50” value [11] was 12.5, the IC50 [12] was 0.0294 µg/mL (≈ 0.0703 µM) and the IC90 [12] was 0.0531 µg/mL (≈ 0.127 µM). The IC50 [13] was 0.0488 µg/mL (≈ 0.117 µM), the IC90 [13] was 0.123 µg/mL (≈ 0.295 µM) and the Ratio [14] was 20.7. The “Ratio IC50” value [15] was 11, the IC50 [16] was 0.034 µg/mL (≈ 0.0813 µM) and the IC90 [16] was 0.0504 µg/mL (≈ 0.12 µM). The Ratio [17] was 17.2, the Ratio [18] was 20.9 and the “Ratio IC50” value [19] was 10.2. For the same compound, the IC50 [20] was 0.0481 µg/mL (≈ 0.115 µM), the IC90 [20] was 0.0867 µg/mL (≈ 0.207 µM) and the “Ratio IC50” value [21] was 18.9. It also gave a Ratio [22] of 20.4, an IC50 [23] of 0.0629 µg/mL (≈ 0.15 µM) and an IC90 [23] of 0.12 µg/mL (≈ 0.286 µM). The “Ratio IC50” value [24] was 12.1, the IC50 [25] was 0.0731 µg/mL (≈ 0.175 µM) and the IC90 [25] was 0.1 µg/mL (≈ 0.24 µM). For the same compound, the Ratio [26] was 14.7, the Ratio [27] was 15.9 and the IC50 [28] was 0.00386 µg/mL (≈ 0.00922 µM). It also gave an IC90 [28] of 0.00544 µg/mL (≈ 0.013 µM), an IC50 [29] of 0.052 µg/mL (≈ 0.124 µM) and an IC90 [29] of 0.113 µg/mL (≈ 0.269 µM). For the same compound, the IC50 [30] was 0.0814 µg/mL (≈ 0.194 µM), the IC90 [30] was 0.111 µg/mL (≈ 0.265 µM) and the Ratio [31] was 22.7. The Ratio [32] was 17, the “Ratio IC50” value [33] was 13.5 and the IC50 [34] was 0.0467 µg/mL (≈ 0.112 µM). For the same compound, the IC90 [34] was 0.0924 µg/mL (≈ 0.221 µM), the IC50 [35] was 0.0395 µg/mL (≈ 0.0945 µM) and the IC90 [35] was 0.0936 µg/mL (≈ 0.224 µM). For the same compound, the “Ratio IC50” value [36] was 8.8 and the “Ratio IC50” value [37] was 12.7.
